# In patent publication US8338599B2, “Compounds having a potentiating effect on the activity of ethionamide and uses thereof” (priority 2006, dated 2012):
# pIC50: −log10 of the molar value. Several values for one entry are separate records, joined by “and”; a condition that tells them apart may be missing. Identical values can stand only once. Like-named read-outs stand apart in the source and are kept apart here.
# What was measured:
# [1] = biological target: T1, EthR protein (Mycobacterium tuberculosis, UniProt P9WMC1); experiment: Inhibition of interaction of EthR with its target DNA sequence (BIAcore); type: binding, M. tuberculosis H37Rv; conditions: compound 3 μM, EthR 540 nM, 37° C.
# Experimental: a) Measurement of the Activity of the Compounds on the Inhibition of Interaction of EthR with its Target DNA Sequence
# The in vitro measurements of inhibition of binding of the EthR protein to its target DNA sequence were performed on a machine of BIAcore®2000 type (AB, Uppsala, Sweden).
# The chips used are CM5 chips sold by the company GE Healthcare. Both the channels of a chip were activated with a solution containing 200 mM of EDC(N-ethyl-N′-(3-[…])carbodiimide) and 50 mM of NHS (N-hydroxysuccinimide). Next, streptavidin (500 ng/μl in a solution containing 10 mM of sodium acetate (pH 3.5) was injected over 12 minutes at a flow rate of 10 μl/minute. The 106-base-pair biotinylated DNA fragment corresponding to the ethA-R intergene region was deposited on one of the two channels of the chip at a rate of 200 ng/ml in order to obtain stable binding of streptavidin corresponding to 50 RU (resonance units). This DNA fragment was obtained by PCR using the chromosomal DNA of M. tuberculosis H37Rv as matrix and O-270: 5′-[…]-3′ (SEQ ID: No. 1) and O-271: 5′-biotin-[…]-3′ (SEQ ID: No. 2). The second channel was functionalized with a 113-base-pair biotinylated DNA fragment (fragment +14 to +127 of the bla gene of E. coli PCR-amplified using the following oligonucleotides: O-343: 5′-[…]-3′ (SEQ ID: No. 3) and O-344: 5′-biotin-[…]-3′ (SEQ ID: No. 4).
# Measurement of the binding of the EthR protein to the immobilized DNA was performed at 37° C. in a reference buffer containing 10 mM of Tris-HCl (pH=7.5), 200 mM of NaCl, 0.1 mM of EDTA, 1 mM of DTT and 1% of DMSO at a flow rate of 20 μl/minute. The specific interaction (SI) of EthR with the 106-base-pair double-stranded DNA sequence, expressed in resonance units, corresponds to the difference in signal observed between the two channels.
# For each inhibition measurement, the compounds of the invention are dissolved in the reference buffer at a concentration of 3 μM. The compounds of the invention are then incubated in the presence of the protein (540 nM) at 37° C. for 5 minutes, and each solution is then injected onto the two channels of the chip for 3 minutes at a flow rate of 20 μl/minute. The inhibition values are calculated at the end of the injection according to the following equation: […]
# in which SIEthR corresponds to the value measured without ligand and SIEthR+ligand corresponds to the value measured in the presence of to ligand.
# [2] = Measurement of the solubility (PBS pH 7.4 vs methanol, LC/MS); type: physicochemical; conditions: pH 7.4, aqueous buffer, kinetic from dmso stock
# Experimental: e) Measurement of the Solubility of the Compounds of the Invention
# 40 μl of a solution containing a compound of the invention at a concentration of 10 mM in DMSO were diluted in 1.960 ml of methanol, and another 40 μl were diluted in 1.960 ml of a PBS solution containing 675 mM of NaCl, 13.5 mM of KCl, 50 mM of Na2HPO4.2H2O and 10 mM of KH2PO4 at a pH of 7.4. The two solutions were stirred for 24 hours at room temperature, and then centrifuged for 5 minutes and filtered through 0.45 μm filters. 20 μl of each solution were then diluted in 118 μl of methanol and analyzed by liquid chromatography coupled to mass spectrometry (LC/MS). The solubility was determined by the ratio of the areas under the curve of the mass signal for the compound of the invention, according to the following equation: […]
# [3] = biological target: T1, EthR protein; experiment: In vitro measurement of the IC50 (EthR/DNA binding, BIAcore); set-up: species or system M. tuberculosis H37Rv
# Experimental: b) In Vitro Measurement of the IC50 of the Compounds of the Invention.
# The in vitro measurement of this datum was performed according to the same principle as for the measurement of inhibition of the EthR/DNA binding using the BIAcore technique.
# The specific interaction between EthR and the specific 106-bp DNA fragment was measured on a range of six concentrations of the compounds of the invention, this range extending from 0.11 μM to 27 μM. The IC50 values are then extrapolated from the sigmoid curves obtained.
# [4] = tested on: M. bovis BCG; type: cell-based, M. bovis BCG 1173P2; conditions: from MIC of ETH alone (6 μM) and MIC of ETH with 25 μM compound
# [5] = tested on: M. tuberculosis H37Rv; experiment: Ethionamide-potentiating effect, fluorimetric detection on Bactec MGIT 960; type: cell-based
# [6] = strain 1%, no ETH, ligand 25 μM
# [7] = strain 100%, ETH 0.025 μg/mL + ligand 25 μM
# [8] = strain 100%, ETH 0.05 μg/mL + ligand 25 μM
# [9] = strain 100%, ETH 0.1 μg/mL + ligand 25 μM
# [10] = strain 100%, ETH 0.25 μg/mL + ligand 25 μM
# [11] = strain 100%, no ETH, ligand 25 μM
# [12] = six concentrations from 0.11 μM to 27 μM, read-out: IC50
# T1 sequence (P9WMC1 whole entry, looked up): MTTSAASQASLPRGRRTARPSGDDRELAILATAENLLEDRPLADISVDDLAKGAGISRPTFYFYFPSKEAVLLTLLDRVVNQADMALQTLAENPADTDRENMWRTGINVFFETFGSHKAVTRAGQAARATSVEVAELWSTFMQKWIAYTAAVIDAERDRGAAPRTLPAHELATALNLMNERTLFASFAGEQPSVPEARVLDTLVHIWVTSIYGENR
smiles,measurement,setting,value
"[N-]=[N+]=NCC(=O)N1CCC(c2nc(-c3ccc(F)cc3)no2)CC1 [Compound 5, 2-azido-1-{4-[3-(4-fluorophenyl)[1,2,4]oxadiazol-5-yl]piperid-1-yl}ethanone]",inhibition at 3 µM,[1],15%
same,solubility at 24 h,[2],9 µg/mL
"[N-]=[N+]=NCC(=O)N1CCC(c2nc(-c3ccc4c(c3)OCO4)no2)CC1 [Compound 12, 2-azido-1-[4-(3-benzo[1,3]dioxol-5-yl[1,2,4]oxadiazol-5-yl)piperid-1-yl]ethanone]",inhibition at 3 µM,[1],19%
same,solubility at 24 h,[2],71 µg/mL
"CC(=O)N1CCC(c2nc(-c3cccs3)no2)CC1 [Compound 17, 1-[4-(3-thiophen-2-yl[1,2,4]oxadiazol-5-yl)piperid-1-yl]ethanone]",solubility at 24 h,[2],55.5 µg/mL
"C=CCCC(=O)N1CCC(c2nc(-c3cccs3)no2)CC1 [Compound 20, 1-[4-(3-thiophen-2-yl[1,2,4]oxadiazol-5-yl)piperid-1-yl]pent-4-en-1-one]",inhibition at 3 µM,[1],53%
same,pIC50,[3],6.00
same,Potentiation %,[4],2500%
same,potentiation of the ethionamide activity (factor),[5]; compound 25 μM,about 20 fold
same,solubility at 24 h,[2],63.5 µg/mL
"N#CCC(=O)N1CCC(c2nc(-c3cccs3)no2)CC1 [Compound 22, 3-oxo-3-[4-(3-thiophen-2-yl[1,2,4]oxadiazol-5-yl)piperid-1-yl]propionitrile]",inhibition at 3 µM,[1],28%
same,pIC50,[3],5.48
same,Potentiation %,[4],2500%
same,potentiation of the ethionamide activity (factor),[5]; compound 25 μM,~10 fold
same,potentiation of the ethionamide activity (factor),"[5]; compound 25 μM, listed as compound 22",about 10 fold
same,solubility at 24 h,[2],60.4 µg/mL
"COCC(=O)N1CCC(c2nc(-c3cccs3)no2)CC1 [Compound 28, 2-methoxy-1-[4-(3-thiophen-2-yl[1,2,4]oxadiazol-5-yl)piperid-1-yl]ethanone]",solubility at 24 h,[2],61.5 µg/mL
"O=C(O)CCC(=O)N1CCC(c2nc(-c3cccs3)no2)CC1 [Compound 31, 4-oxo-4-[4-(3-thiophen-2-yl[1,2,4]oxadiazol-5-yl)piperid-1-yl]butyric acid]",solubility at 24 h,[2],67.1 µg/mL
"O=C(CC1CC1)N1CCC(c2nc(-c3cccs3)no2)CC1 [Compound 33, 2-cyclopropyl-1-[4-(3-thiophen-2-yl[1,2,4]oxadiazol-5-yl)piperid-1-yl]ethanone]",inhibition at 3 µM,[1],71%
same,pIC50,[3],5.95
same,Potentiation %,[4],2500%
same,bacterial growth-inhibiting properties of the compound alone,"[5]; 25 μM, no ETH (lines A5 and D3)",absence of bacterial growth-inhibiting properties
same,MIC,"[5]; Mycobacterium tuberculosis, H37RV, compound 25 μM, read-out: MIC for ETH in the presence of compound",0.05 µg/mL and 0.3 µM
same,State,[5]; [6],R
same,fluorescence reading D + 0,[5]; [6],0
same,fluorescence reading D + 1,[5]; [6],0
same,"fluorescence reading D + 5 (first column, c6)",[5]; [6],0
same,"fluorescence reading D + 5 (second column, c7)",[5]; [6],0
same,fluorescence reading D + 6,[5]; [6],1
same,"fluorescence reading D + 7 (first column, c9)",[5]; [6],180
same,"fluorescence reading D + 7 (second column, c10)",[5]; [6],319
same,fluorescence reading J + 8,[5]; [6],400
same,State,[5]; [7],R
same,fluorescence reading D + 0,[5]; [7],0
same,fluorescence reading D + 1,[5]; [7],0
same,"fluorescence reading D + 5 (first column, c6)",[5]; [7],200
same,"fluorescence reading D + 5 (second column, c7)",[5]; [7],353
same,fluorescence reading D + 6,[5]; [7],400
same,"fluorescence reading D + 7 (first column, c9)",[5]; [7],400
same,"fluorescence reading D + 7 (second column, c10)",[5]; [7],400
same,fluorescence reading J + 8,[5]; [7],400
same,State,[5]; [8],S
same,fluorescence reading D + 0,[5]; [8],0
same,fluorescence reading D + 1,[5]; [8],0
same,"fluorescence reading D + 5 (first column, c6)",[5]; [8],0
same,"fluorescence reading D + 5 (second column, c7)",[5]; [8],0
same,fluorescence reading D + 6,[5]; [8],0
same,"fluorescence reading D + 7 (first column, c9)",[5]; [8],0
same,"fluorescence reading D + 7 (second column, c10)",[5]; [8],0
same,fluorescence reading J + 8,[5]; [8],0
same,State,[5]; [9],S
same,fluorescence reading D + 0,[5]; [9],0
same,fluorescence reading D + 1,[5]; [9],0
same,"fluorescence reading D + 5 (first column, c6)",[5]; [9],0
same,"fluorescence reading D + 5 (second column, c7)",[5]; [9],0
same,fluorescence reading D + 6,[5]; [9],0
same,"fluorescence reading D + 7 (first column, c9)",[5]; [9],0
same,"fluorescence reading D + 7 (second column, c10)",[5]; [9],0
same,fluorescence reading J + 8,[5]; [9],0
same,State,[5]; [10],S
same,fluorescence reading D + 0,[5]; [10],0
same,fluorescence reading D + 1,[5]; [10],0
same,"fluorescence reading D + 5 (first column, c6)",[5]; [10],0
same,"fluorescence reading D + 5 (second column, c7)",[5]; [10],0
same,fluorescence reading D + 6,[5]; [10],0
same,"fluorescence reading D + 7 (first column, c9)",[5]; [10],0
same,"fluorescence reading D + 7 (second column, c10)",[5]; [10],0
same,fluorescence reading J + 8,[5]; [10],0
same,State,[5]; [11],R
same,fluorescence reading D + 0,[5]; [11],0
same,fluorescence reading D + 1,[5]; [11],0
same,"fluorescence reading D + 5 (first column, c6)",[5]; [11],400
same,"fluorescence reading D + 5 (second column, c7)",[5]; [11],400
same,fluorescence reading D + 6,[5]; [11],400
same,"fluorescence reading D + 7 (first column, c9)",[5]; [11],400
same,"fluorescence reading D + 7 (second column, c10)",[5]; [11],400
same,fluorescence reading J + 8,[5]; [11],400
same,solubility at 24 h,[2],63.5 µg/mL
"O=C(CC1CCCC1)N1CCC(c2nc(-c3cccs3)no2)CC1 [Compound 35, 2-cyclopentyl-1-[4-(3-thiophen-2-yl[1,2,4]oxadiazol-5-yl)piperid-1-yl]ethanone]",inhibition at 3 µM,[1],52%
same,pIC50,[3]; [12],5.83
same,Potentiation %,[4],2500%
"O=C(CC1C=CCC1)N1CCC(c2nc(-c3cccs3)no2)CC1 (stereo not shown) [Compound 36, 2-cyclopent-2-enyl-1-[4-(3-thiophen-2-yl[1,2,4]oxadiazol-5-yl)piperid-1-yl]-ethanone]",inhibition at 3 µM,[1],78%
same,pIC50,[3]; [12],6.00
same,Potentiation %,[4],500%
"O=C(COc1ccccc1)N1CCC(c2nc(-c3cccs3)no2)CC1 [Compound 45, 2-phenoxy-1-[4-(3-thiophen-2-yl[1,2,4]oxadiazol-5-yl)piperid-1-yl]ethanone]",inhibition at 3 µM,[1],75%
same,pIC50,[3]; [12],5.82
same,Potentiation %,[4],2500%
"O=C(Nc1ccccc1)N1CCC(c2nc(-c3cccs3)no2)CC1 [Compound 48, 4-(3-thiophen-2-yl[1,2,4]oxadiazol-5-yl)piperidine-1-carboxylic acid phenylamide]",inhibition at 3 µM,[1],56%
same,pIC50,[3],5.94
same,solubility at 24 h,[2],0.86 µg/mL
"O=C(Nc1cccs1)N1CCC(c2nc(-c3cccs3)no2)CC1 [Compound 50, 4-(3-thiophen-2-yl[1,2,4]oxadiazol-5-yl)piperidine-1-carboxylic acid thiophen-2-ylamide]",inhibition at 3 µM,[1],96%
same,pIC50,[3],6.36
same,solubility at 24 h,[2],2.9 µg/mL
"O=C(NC1CC1)N1CCC(c2nc(-c3cccs3)no2)CC1 [Compound 51, 4-(3-thiophen-2-yl[1,2,4]oxadiazol-5-yl)piperidine-1-carboxylic acid cyclopropylamide]",inhibition at 3 µM,[1],13%
same,solubility at 24 h,[2],272 µg/mL
"O=C(c1ccccc1)N1CCC(c2nc(-c3cccs3)no2)CC1 [Compound 54, phenyl[4-(3-thiophen-2-yl[1,2,4]oxadiazol-5-yl)piperid-1-yl]methanone]",inhibition at 3 µM,[1],5%
same,solubility at 24 h,[2],38.7 µg/mL
